Legend:
rat EDL muscle = test: Fatigue in rat EDL muscle in situ; format: in vivo
Excerpt: Rats were placed under anesthesia using isoflurane and the skin around the experimental leg was removed. The distal end of the EDL muscle and its associated tendon were then isolated. The rat was then placed on the platform of an Aurora in-situ muscle analysis rig (806C), maintained at body temperature via a circulating water system. The knee was immobilized in a clamp between two sharpened screws and the distal tendon cut and tied to the arm of a force transducer (Aurora Scientific, Ontario, Canada) using a silk suture. The muscle was stimulated directly via the peroneal nerve. For isolation of the nerve, a 1 cm incision was made at the upper thigh and the overlying gastrocnemius muscle was cut to expose an approximate 5 mm stretch of the peroneal nerve. […] Muscle contractile properties were assessed by applying an electrical current to the nerve and recording the force generated by the muscle via a servomotor. […]
With the rat in situ EDL muscle preparation described in Example 3, a fatiguing protocol was utilized where muscle was stimulated for 600 seconds. […] To elicit muscle fatigue, the EDL muscle was stimulated with 350 msec electrical trains every 3 seconds for ten minutes at a frequency producing an initial force equal to 50% of maximal (FMax50) as determined by the force-frequency relationship for each animal.

healthy rats [1] = test: Rotarod running assay; format: in vivo, rat; details: for Run time (s) mean ± SEM: 30 minutes prior
Method: Female Sprague Dawley rats (210-260 g) were obtained from Charles River Laboratories and acclimated in the test facility for a minimum of six days prior to the start of the study. All rats were trained the day prior to compound administration. Training consisted of placing the rats on the rotating drum (rod), starting at a low constant speed (10 RPM). The rats were acclimated to walk on the drum for 5 minutes before resting. A second training session of an increasing speed from 14-16 RPM was initiated after all rats in the experimental group had finished the first training session. […] On the day of the experiment animals were dosed thirty minutes prior to start of test. The test began with a 5 minute primer session, whereby animals were run at an increasing speed from 14-16 RPM over 5 minutes. Rats were then run at a constantly accelerating rate from 12 RPM to 25 RPM over the course of 10 minutes. […] Time to fall was recorded, with the test being terminated at 900 seconds. Compound A was administered via oral gavage 30 minutes prior to assessment. Each dose was formulated as a suspension containing 0.2% Tween 80, 0.5% HPMC and water. Dose volume was 5 mL/kg. Vehicle (0.2% Tween 80, 0.5% HPMC and water) was administered similarly. Control treatments were chosen based on association with amelioration of central fatigue (caffeine, Davis 2003), muscular fatigue (creatine, Boyadjiev, 2007) and dual central/muscular fatigue (phosphoserine, […] 1976).

[2] = tested on: skinned fast skeletal muscle fibers from rabbit psoas muscle; details: cited from earlier work
[3] = tested on: patients with peripheral artery disease and claudication; test: Bilateral heel raise test, Phase II study; format: in vivo, human
Method: This study was a double-blind, randomized, placebo-controlled, three-period cross-over, hypothesis generating Phase II study in patients with peripheral artery disease and claudication. […] Secondary objectives included (a) evaluation and characterization of the relationship, if any, between the doses and plasma concentrations of Compound A and its pharmacodynamic effects, and (b) evaluation of the safety and tolerability of Compound A administered as single doses.
Single doses of each of 375 mg Compound A, 750 mg Compound A and placebo were administered in random order with a 6 to 10 day wash out between each dose. […] Results were analyzed using a repeated-measures ANCOVA with treatment, sequence, period, baseline, and patient in the model. […]
In the bilateral heel raise test, the lateral aspect of the ankle on the dominant leg was instrumented with an electromechanical goniometer connected to a PC-based data collection system to monitor and record ankle angle position and range of motion (Noraxon U.S.A., Inc., Scottsdale, Ariz.). […] The total number of heel raises, time, and a calculated index of work performed were assessed from the beginning of test to the onset of claudication and to maximal exercise. An index of work performed was calculated as follows: Heel Raise Work Index (HRWI)=(sinθ°*foot length)*body mass.

healthy rats [4] = test: Treadmill running assay; format: in vivo, rat
Method: Male Sprague Dawley rats (Charles River), 10-12 weeks old, 250-400 g. Rats were acclimated for a minimum of 2 days and weight was measured weekly. The endurance capacity of rats was assessed using a progressive exercise test as previously described (A. Aaker et al. J Cardiovasc Pharmacol28: 353-362, 1996; B. Helwig et al. J Appl Physiol. 2003 June; 94(6):2225-36). After familiarization with the treadmill apparatus, rats were run at a treadmill speed of 30 meters per minute (m/min) with a 5% incline. Every 15 minutes, the treadmill speed was increased by 5 meters per minute and the rats continued to exercise until they reached the point of fatigue and were unable to continue exercising (FIG. 1A). Exercise time was measured in minutes while exercise distance was recorded in meters. Compound A was administered via oral gavage 2 hours prior to assessment. Each dose was formulated as a suspension containing 1% hydroxypropyl methylcellulose (HPMC), 0.2% Tween 80, and micronized Compound A, and dose volume was 5 ml/kg. Vehicle (0.2% Tween 80, 1% HPMC and water) was administered similarly.

[5] = 10 mg/kg oral gavage 2 hours prior
[6] = 20 mg/kg oral gavage 2 hours prior

C#Cc1cnc2nc(O)n(C(CC)CC)c2n1 [Compound A, 6-ethynyl-1-(pentan-3-yl)-1H-imidazo[4,5-b]pyrazin-2-ol]
average stimulation frequency for force production similar to pre-dose (rat EDL muscle; 1 mg/kg via duodenal cannula, vehicle 30 Hz): approximately 26 Hz
EDL muscle fatigue (rat EDL muscle; 1 mg/kg, 600 seconds protocol, FIG. 4): decreased rat EDL muscle fatigue in situ
Run time (s) mean ± SEM (healthy rats [1]; 0.3 mg/kg oral gavage): 301 ± 36 s
Run time (s) mean ± SEM (healthy rats [1]; 1 mg/kg oral gavage): 334 ± 29 s
Run time (s) mean ± SEM (healthy rats [1]; 3 mg/kg oral gavage): 389 ± 65 s
change of running time (healthy rats [1]; 3 mg/kg, maximum dose tested): more than a doubling of running time
force-calcium relationship [2]: leftward-shift of the force-calcium relationship
relationship between plasma concentrations and outcomes in the Heel Raise Test ([3]; PK/PD analysis, FIG. 14): strong positive relationship
calf muscle performance by heel raise testing ([3]; single doses 375, 500, 750 mg, 3 and 6 hours after dosing): increased calf muscle performance
Distance (m) Mean ± SEM (healthy rats [4]; [5]): 1972 ± 176 m
Time (Min) Mean ± SEM (healthy rats [4]; [5]): 60.7 ± 4.2 min
Distance (m) Mean ± SEM (healthy rats [4]; [6]): 1943 ± 205 m
Time (Min) Mean ± SEM (healthy rats [4]; [6]): 59.4 ± 4.7 min
increase in treadmill running time over baseline (healthy rats [4]; 10 and 20 mg/kg): 20%
increase in treadmill running time over vehicle control (healthy rats [4]; 10 and 20 mg/kg): 50%

Reference: patent US20190167676A1, “METHODS FOR IMPROVING RESISTANCE TO SKELETAL MUSCLE FATIGUE” (Cytokinetics, Inc., priority 2012, published 2019)
